Counter-ions that a name gives are not always drawn. Like-named read-outs stand apart in the source and are kept apart here.

What all share (format): biochemical
Assay [1] concerns the target T1, recombinant human DAO (diamine oxidase) (Homo sapiens, UniProt P19801).
T1 construct: purchased R&D systems
T1 sequence (P19801 20-751): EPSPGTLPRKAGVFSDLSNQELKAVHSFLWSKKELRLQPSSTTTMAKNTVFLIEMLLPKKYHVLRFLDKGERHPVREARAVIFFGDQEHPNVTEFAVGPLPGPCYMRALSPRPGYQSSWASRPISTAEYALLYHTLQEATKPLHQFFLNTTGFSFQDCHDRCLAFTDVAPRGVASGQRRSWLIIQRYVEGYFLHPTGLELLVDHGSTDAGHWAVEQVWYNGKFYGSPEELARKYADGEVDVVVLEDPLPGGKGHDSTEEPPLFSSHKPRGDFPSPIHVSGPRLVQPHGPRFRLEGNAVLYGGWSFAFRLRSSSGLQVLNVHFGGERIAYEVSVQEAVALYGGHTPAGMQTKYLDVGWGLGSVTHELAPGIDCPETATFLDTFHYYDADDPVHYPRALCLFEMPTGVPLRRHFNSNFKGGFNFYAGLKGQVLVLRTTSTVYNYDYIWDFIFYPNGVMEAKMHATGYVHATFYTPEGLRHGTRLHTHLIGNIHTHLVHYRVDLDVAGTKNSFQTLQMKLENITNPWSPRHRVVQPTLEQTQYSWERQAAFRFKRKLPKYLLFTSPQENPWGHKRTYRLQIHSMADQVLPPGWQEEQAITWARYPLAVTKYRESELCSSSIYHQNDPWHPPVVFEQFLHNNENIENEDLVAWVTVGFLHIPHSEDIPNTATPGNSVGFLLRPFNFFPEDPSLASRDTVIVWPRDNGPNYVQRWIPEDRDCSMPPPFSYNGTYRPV
Briefly: Activity evaluation on recombinant human DAO (Amplex Red/HRP-coupled assay, 1 mM putrescine substrate). The note with it: read-out: Inhibitory Activity (IC50, nM) DAO. The procedure, abridged:
(§1)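 Enzyme activity was measured as fluorescence rate (ex 544, em 590 nm) from resorufin formed by HRP-coupled H2O2 oxidation of 200 uM Amplex Red. Compounds were first incubated 30 min at 37 °C with enzyme at pH 7.4; substrates were 0.5 mM tyramine (MAO-A), 1 mM benzylamine (MAO-B) and 1 mM putrescine (DAO).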

The target in assay [2] is T2, recombinant human MAO-B (monoamine oxidase-B) (Homo sapiens, UniProt P27338).
T2 construct: purchased Sigma-Aldrich
T2 sequence (P27338 1-520): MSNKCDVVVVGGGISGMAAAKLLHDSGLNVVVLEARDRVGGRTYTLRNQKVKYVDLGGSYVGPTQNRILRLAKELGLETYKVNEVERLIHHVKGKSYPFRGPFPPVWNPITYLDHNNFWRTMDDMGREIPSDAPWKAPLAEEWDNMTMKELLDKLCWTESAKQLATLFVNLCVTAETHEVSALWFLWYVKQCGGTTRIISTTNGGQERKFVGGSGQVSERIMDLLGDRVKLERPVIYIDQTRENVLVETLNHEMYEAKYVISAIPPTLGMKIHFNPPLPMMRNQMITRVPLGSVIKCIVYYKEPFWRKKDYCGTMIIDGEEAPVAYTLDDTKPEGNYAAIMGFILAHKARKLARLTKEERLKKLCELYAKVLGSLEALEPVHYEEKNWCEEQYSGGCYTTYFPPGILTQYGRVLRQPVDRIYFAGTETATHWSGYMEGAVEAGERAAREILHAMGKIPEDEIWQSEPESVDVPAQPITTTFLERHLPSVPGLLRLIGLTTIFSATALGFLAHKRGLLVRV
Briefly: Activity evaluation on recombinant human MAO-B (Amplex Red/HRP-coupled assay, 1 mM benzylamine substrate). The note with it: read-out: Inhibitory Activity (IC50, nM) MAO-B. The procedure, abridged: as §1

In another assay the target is T3, recombinant human VAP-1 (Homo sapiens, UniProt Q16853).
T3 construct: purchased R&D systems
T3 sequence (Q16853 1-763): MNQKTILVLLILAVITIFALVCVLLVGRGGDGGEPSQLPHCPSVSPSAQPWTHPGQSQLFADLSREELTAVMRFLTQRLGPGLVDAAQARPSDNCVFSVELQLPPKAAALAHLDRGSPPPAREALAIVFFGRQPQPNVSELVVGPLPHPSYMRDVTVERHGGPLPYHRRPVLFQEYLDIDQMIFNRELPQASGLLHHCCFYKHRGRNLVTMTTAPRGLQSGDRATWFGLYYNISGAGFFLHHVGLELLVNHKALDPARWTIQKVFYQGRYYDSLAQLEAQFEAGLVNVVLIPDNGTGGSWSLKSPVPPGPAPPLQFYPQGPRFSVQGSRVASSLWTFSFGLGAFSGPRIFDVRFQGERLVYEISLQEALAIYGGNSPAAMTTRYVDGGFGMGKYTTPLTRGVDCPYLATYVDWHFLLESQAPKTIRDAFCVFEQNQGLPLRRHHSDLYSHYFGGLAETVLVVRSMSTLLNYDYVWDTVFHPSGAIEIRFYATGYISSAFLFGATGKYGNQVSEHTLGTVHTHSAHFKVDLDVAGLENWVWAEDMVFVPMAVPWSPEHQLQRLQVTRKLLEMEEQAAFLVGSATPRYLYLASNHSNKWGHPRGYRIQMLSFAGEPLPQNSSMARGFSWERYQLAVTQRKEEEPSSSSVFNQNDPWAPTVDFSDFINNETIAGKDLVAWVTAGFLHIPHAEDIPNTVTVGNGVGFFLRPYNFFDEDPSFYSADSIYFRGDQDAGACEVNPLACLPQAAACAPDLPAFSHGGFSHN
Nature of the assay: Activity evaluation on recombinant human VAP-1 (Amplex Red/HRP-coupled hydrogen peroxide assay, benzylamine substrate). The conditions noted are these: read-out: Inhibitory Activity (IC50, nM) human VAP-1. The procedure, abridged:
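Recombinant human VAP-1 in 50 mM sodium phosphate pH 7.4 preincubated 30 min at 37 °C with compound (8-point 1:3 series, <1% DMSO), then 1 mM benzylamine, 200 uM Amplex Red, 1 U/mL HRP added. H2O2-derived resorufin fluorescence (ex 544/em 590) followed 1–2 h; IC50 from four-parameter fit of rate inhibition.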

Assay [3] concerns the target T4, recombinant human MAO-A (monoamine oxidase-A) (Homo sapiens, UniProt P21397).
T4 construct: purchased Sigma-Aldrich
T4 sequence (P21397 1-527): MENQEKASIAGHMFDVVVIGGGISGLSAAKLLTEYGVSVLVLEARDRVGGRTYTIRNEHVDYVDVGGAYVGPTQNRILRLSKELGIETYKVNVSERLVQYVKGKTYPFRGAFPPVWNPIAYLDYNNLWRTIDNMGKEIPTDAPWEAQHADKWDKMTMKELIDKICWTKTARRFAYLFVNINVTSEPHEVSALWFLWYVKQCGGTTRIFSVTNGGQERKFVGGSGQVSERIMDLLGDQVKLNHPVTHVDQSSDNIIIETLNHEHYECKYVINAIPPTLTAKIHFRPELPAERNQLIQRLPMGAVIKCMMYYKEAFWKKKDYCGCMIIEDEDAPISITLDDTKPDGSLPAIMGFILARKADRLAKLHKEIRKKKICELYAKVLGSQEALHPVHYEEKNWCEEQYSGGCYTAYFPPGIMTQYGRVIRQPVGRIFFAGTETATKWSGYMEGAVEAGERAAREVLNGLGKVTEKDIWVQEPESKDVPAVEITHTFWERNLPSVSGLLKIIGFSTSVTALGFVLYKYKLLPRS
Nature of the assay: Activity evaluation on recombinant human MAO-A (Amplex Red/HRP-coupled assay, 0.5 mM tyramine substrate). The conditions noted are these: read-out: Inhibitory Activity (IC50, nM) MAO-A. The procedure, abridged:
as §1

Where [4] appears, read: recombinant human VAP-1, 30 min preincubation at 37° C., 1 mM benzylamine.
[5] abbreviates: recombinant human VAP-1, benzylamine substrate.

In the case of `NCC(Cn1ncn(Cc2cc(-c3ccc(N4CCNCC4)cc3)cs2)c1=O)=C(F)F` [Example 147, 2-[2-(aminomethyl)-3,3-difluoro-allyl]-4-[[4-(4-piperazin-1-ylphenyl)-2-thienyl]methyl]-1,2,4-triazol-3-one Ditrifluoroacetate], the IC50 in assay [1] (1 mM putrescine) is 2600 nM; in assay [2] (1 mM benzylamine) it was above 100000 nM; on recombinant human VAP-1 (setting [4]), 11 nM; in assay [3] (0.5 mM tyramine) it was above 100000 nM.

For the molecule `CCn1cc(-c2ccc3sc(Cn4cnn(CC(CN)=C(F)F)c4=O)cc3c2)cn1` [Example 212, 2-[2-(aminomethyl)-3,3-difluoro-allyl]-4-[[5-(1-ethylpyrazol-4-yl)benzothiophen-2-yl]methyl]-1,2,4-triazol-3-one Trifluoroacetate], the IC50 in assay [1] (1 mM putrescine substrate) was 4320 nM; in assay [2] (1 mM benzylamine substrate), above 100000 nM; at recombinant human VAP-1 (setting [5]) it was 1.5 nM; in assay [3] (0.5 mM tyramine substrate), 79100 nM.

As to `CN1CCOc2cc(-c3ccc(Cn4cnn(CC(CN)=C(F)F)c4=O)s3)ccc21` [Example 140, 2-[2-(aminomethyl)-3,3-difluoro-allyl]-4-[[5-(4-methyl-2,3-dihydro-1,4-benzoxazin-7-yl)-2-thienyl]methyl]-1,2,4-triazol-3-one Trifluoroacetate], the IC50 in assay [1] (1 mM putrescine) stood at 6800 nM; in assay [2] (1 mM benzylamine), 8000 nM; at recombinant human VAP-1 (setting [4]) it was 0.8 nM; in assay [3] (0.5 mM tyramine), 6600 nM.

On to `CCn1cc(-c2cccc(-c3ccc(Cn4cnn(CC(CN)=C(F)F)c4=O)s3)c2)cn1` [Example 287, 2-[2-(aminomethyl)-3,3-difluoro-allyl]-4-[[5-[3-(1-ethylpyrazol-4-yl)phenyl]-2-thienyl]methyl]-1,2,4-triazol-3-one Trifluoroacetate], for which the 50% inhibitory concentration (IC50) was 13900 nM in assay [1] (1 mM putrescine substrate), 12100 nM in assay [2] (1 mM benzylamine substrate), 0.7 nM on recombinant human VAP-1 (setting [5]) and above 100000 nM in assay [3] (0.5 mM tyramine substrate).

On to `CCn1cc(-c2csc(Cn3cnn(CC(CN)=C(F)F)c3=O)c2)ccc1=O` [Example 193, 5-[5-[[1-[2-(aminomethyl)-3,3-difluoro-allyl]-5-oxo-1,2,4-triazol-4-yl]methyl]-3-thienyl]-1-ethyl-pyridin-2-one Trifluoroacetate], for which the IC50 is 8700 nM in assay [1] (1 mM putrescine substrate), above 100000 nM in assay [2] (1 mM benzylamine substrate), 1.3 nM at recombinant human VAP-1 (setting [5]) and above 100000 nM in assay [3] (0.5 mM tyramine substrate).

On to `NCC(Cn1ncn(Cc2ccc(-c3cc(F)c4[nH]c(=O)ccc4c3)s2)c1=O)=C(F)F` [Example 137, 6-[5-[[1-[2-(aminomethyl)-3,3-difluoro-allyl]-5-oxo-1,2,4-triazol-4-yl]methyl]-2-thienyl]-8-fluoro-1H-quinolin-2-one Trifluoroacetate], for which the IC50 was above 100000 nM in assay [1] (1 mM putrescine), above 100000 nM in assay [2] (1 mM benzylamine), 0.3 nM on recombinant human VAP-1 (setting [4]) and above 100000 nM in assay [3] (0.5 mM tyramine).

For the molecule `CS(=O)(=O)c1ccc(-c2cnc(-n3cnn(CC(CN)=C(F)F)c3=O)c(F)c2)cc1` [Example 82, 2-[2-(aminomethyl)-3,3-difluoro-allyl]-4-[3-fluoro-5-(4-methylsulfonylphenyl)-2-pyridyl]-1,2,4-triazol-3-one Trifluoroacetate], the IC50 in assay [1] (1 mM putrescine) is 13 nM; in assay [2] (1 mM benzylamine), 3700 nM; at recombinant human VAP-1 (setting [4]) it was 0.1 nM; in assay [3] (0.5 mM tyramine) it was above 100000 nM.

For the molecule `Cc1cc(-c2ccc(N3CCOCC3)cc2)cnc1-n1cnn(CC(CN)=C(F)F)c1=O` [Example 237, 2-[2-(aminomethyl)-3,3-difluoro-allyl]-4-[3-methyl-5-(4-morpholinophenyl)-2-pyridyl]-1,2,4-triazol-3-one Trifluoroacetate], the IC50 in assay [1] (1 mM putrescine substrate) is 6100 nM; in assay [2] (1 mM benzylamine substrate), 84000 nM; on recombinant human VAP-1 (setting [5]), 0.42 nM; in assay [3] (0.5 mM tyramine substrate) it was above 100000 nM.

In the case of `CN(C)c1ccc(-c2ccc3sc(Cn4cnn(CC(CN)=C(F)F)c4=O)cc3c2)cn1` [Example 208, 2-[2-(aminomethyl)-3,3-difluoro-allyl]-4-[[5-[6-(dimethylamino)-3-pyridyl]benzothiophen-2-yl]methyl]-1,2,4-triazol-3-one Trifluoroacetate], the IC50 in assay [1] (1 mM putrescine substrate) was above 100000 nM; in assay [2] (1 mM benzylamine substrate) it was 42400 nM; on recombinant human VAP-1 (setting [5]), 2.5 nM; in assay [3] (0.5 mM tyramine substrate) it was 89900 nM.

`NCC(Cn1ncn(Cc2cc3cc(-c4ccc(N5CCNCC5)cc4)ccc3s2)c1=O)=C(F)F` [Example 206, 2-[2-(aminomethyl)-3,3-difluoro-allyl]-4-[[5-(4-piperazin-1-ylphenyl)benzothiophen-2-yl]methyl]-1,2,4-triazol-3-one Ditrifluoroacetate]: the IC50 in assay [1] (1 mM putrescine substrate) was 639 nM; in assay [2] (1 mM benzylamine substrate), 14600 nM; at recombinant human VAP-1 (setting [5]), 2.3 nM; in assay [3] (0.5 mM tyramine substrate) it was above 100000 nM.

As to `Cc1cc(Br)ccc1-n1cnn(CC(CN)=C(F)F)c1=O` [Example 6, 2-[2-(aminomethyl)-3,3-difluoro-allyl]-4-(4-bromo-2-methyl-phenyl)-1,2,4-triazol-3-one trifluoroacetate], the half-inhibitory concentration (IC50) in assay [1] (1 mM putrescine) is above 100000 nM; in assay [2] (1 mM benzylamine), above 100000 nM; at recombinant human VAP-1 (setting [4]) it was 9.4 nM; in assay [3] (0.5 mM tyramine) it was above 100000 nM.

The record behind these values is patent US11168073B2, “3,3-difluoroallylamines or salts thereof and pharmaceutical compositions comprising the same” (YUHAN CORPORATION, priority 2018, dated 2021).
